Holding throughout (test): In vitro analysis of drugs (MTT cell viability)
In one test the test system is SK-BR-3 cancer cells. The format is cell-based. As to conditions: read-out: IC50 ± SD (nM) SK-BR3 (Breast). The method, then:
(§1) The drugs (compounds D1-D6, D21, D25, D27, D28, D35-D37, D46, D47, D48, D49 and controls DXd, FL118 and SN38) were evaluated on NCI-N87, MDA-MB-468, SK-BR-3, HCT116, and JIMT-1 cancer cells. The cancer cells were seeded in 96-well plates at a density of 2,000 to 5,000 cells per well in 100 µL of medium and cultured for 22 to 26 hours. The series of compound was diluted by serial dilution of 1:4˜1:8 from 2 μM to 1 pM with DMSO. The diluted drugs were added to triplicate wells of 96-well plates at 50 μL per well. All assays were performed, by repeating up to 3 times and the results were obtained in up to 3 independent experiments. The plates were incubated for 6 days at 37° C. in a humidified 5% CO2-in-air atmosphere. Cell viability was determined by the MTT assay. The 15 μL of 3-(4,5-dimethylthiazol-2-yl)-2,5-diphenyltetrazolium bromide (MTT) dye dissolved in PBS buffer solution (5 mg/mL) was added to each well of the plates. The formazans formed by reduction of the MTT dye by mitochondrial oxidoreductases in the living cells were dissolved in DMSO, the formazans measured using the absorbance at 550 nm. IC50 (half maximal inhibitory concentration) was generated using a sigmoidal dose-response nonlinear regression curve fit (GraphPad software Inc.).

The subject of another test is MDA-MB-468 cancer cells. The format is cell-based. The conditions noted are these: read-out: IC50 ± SD (nM) MDA-MB-468 (TNBC). How it is done: as §1
In the next test the test system is NCI-N87 cancer cells. The test is classed as cell-based, human. As to conditions: read-out: IC50 ± SD (nM) NCI-N87 (Gastric). How it is done:
as §1

Where [1] appears, read: Homo sapiens, MDA-MB-468, 144 h.
Where [2] appears, read: Drugs, expression level 21.8 × 10^5, 6 days, MTT.
The mark [3] stands for this setting: Drugs, expression level 0.003 × 10^5, 6 days, MTT.
Setting [4] is: Drugs, expression level 13.2 × 10^5, 6 days, MTT.

Structures are written as SMILES. Where two headings read alike, the source gives them in different places.

Broadly, the IC50 is the concentration that inhibits the measured activity by half. Take `CC[C@@]1(O)C(=O)OCc2c1cc1n(c2=O)Cc2c-1nc1cc3c(cc1c2-c1ccc(O)cc1)OCO3` [Compound D21]: the 50% inhibitory concentration (IC50) came to 0.61 ± 0.03 nM with SK-BR-3 cancer cells (Homo sapiens, SK-BR-3, 144 h); 0.38 ± 0.14 nM in the test with MDA-MB-468 cancer cells (setting [1]); 1.49 ± 0.53 nM with NCI-N87 cancer cells (Homo sapiens, NCI-N87, 144 h).

`CC[C@@]1(O)C(=O)OCc2c1cc1n(c2=O)Cc2c-1nc1cc3c(cc1c2CCc1ccc(O)cc1)OCO3` [Compound D35]: the 50% inhibitory concentration (IC50) is 1.71 nM with MDA-MB-468 cancer cells (setting [1]) and 5.57 nM in the test on NCI-N87 cancer cells (Homo sapiens, NCI-N87, 144 h).

In the case of `CC[C@@]1(O)C(=O)OCc2c1cc1n(c2=O)Cc2c-1nc1cc(F)c(C)cc1c2-c1ccc(O)cc1` [Compound D37], the IC50 in the test with SK-BR-3 cancer cells (Homo sapiens, SK-BR-3, 144 h) came out at 0.89 ± 0.06 nM; with MDA-MB-468 cancer cells (setting [1]), 0.36 ± 0.23 nM; with NCI-N87 cancer cells (Homo sapiens, NCI-N87, 144 h), 1.19 ± 0.25 nM.

For `CC[C@@]1(O)C(=O)OCc2c1cc1n(c2=O)Cc2c-1nc1cc(F)c(C)c3c1c2[C@@H](NCCc1ccc(O)cc1)CC3` [Compound D47], the IC50 in the test with SK-BR-3 cancer cells (Homo sapiens, SK-BR-3, 144 h) came out at 1.8 nM; with MDA-MB-468 cancer cells (setting [1]), 0.96 nM; with NCI-N87 cancer cells (Homo sapiens, NCI-N87, 144 h), 2.13 nM.

As for `CC[C@@]1(O)C(=O)OCc2c1cc1n(c2=O)Cc2c-1nc1cc(F)c(C)c3c1c2[C@@H](NC(=O)CO)CC3` [DXd, reference compound], the figures for the IC50 in the test with SK-BR-3 cancer cells (setting [2]), in the test on MDA-MB-468 cancer cells (setting [3]) and in the test with NCI-N87 cancer cells (setting [4]) were 1.87 ± 0.49 nM, 0.82 ± 0.3 nM and 7.12 ± 1.75 nM, respectively.

For `CC[C@@]1(O)C(=O)OCc2c1cc1n(c2=O)Cc2c-1nc1cc3c(cc1c2-c1cccc(O)c1)OCO3` [Compound D36], the 50% inhibitory concentration (IC50) in the test on SK-BR-3 cancer cells (Homo sapiens, SK-BR-3, 144 h) worked out at 0.91 ± 0.13 nM; in the test on MDA-MB-468 cancer cells (setting [1]), 0.52 ± 0.29 nM; in the test with NCI-N87 cancer cells (Homo sapiens, NCI-N87, 144 h), 1.19 ± 0.02 nM.

In the case of `CCc1c2c(nc3ccc(O)cc13)-c1cc3c(c(=O)n1C2)COC(=O)[C@]3(O)CC` [SN38, reference compound], the IC50 in the test with SK-BR-3 cancer cells (setting [2]) came out at 1.82 ± 1.21 nM; with MDA-MB-468 cancer cells (setting [3]), 0.68 ± 0.14 nM; in the test on NCI-N87 cancer cells (setting [4]) it was 6.52 ± 1.55 nM.

For the compound `CC[C@@]1(O)C(=O)OCc2c1cc1n(c2=O)Cc2c-1nc1cc(F)c(O)cc1c2-c1ccco1` [Compound D27], the 50% inhibitory concentration (IC50) in the test with SK-BR-3 cancer cells (Homo sapiens, SK-BR-3, 144 h) was 1.79 ± 0.34 nM; in the test with MDA-MB-468 cancer cells (setting [1]), 0.86 ± 0.11 nM; with NCI-N87 cancer cells (Homo sapiens, NCI-N87, 144 h), 6.52 ± 0.45 nM.

`CC[C@@]1(O)C(=O)OCc2c1cc1n(c2=O)Cc2c-1nc1cc(F)c(C)c3c1c2[C@@H](NCc1ccc(O)cc1)CC3` [Compound D46]: the IC50 was found to be 1.73 ± 0.19 nM in the test on SK-BR-3 cancer cells (Homo sapiens, SK-BR-3, 144 h); 0.92 ± 0.12 nM with MDA-MB-468 cancer cells (setting [1]); 2.2 ± 0.13 nM in the test on NCI-N87 cancer cells (Homo sapiens, NCI-N87, 144 h).

Take `CC[C@@]1(O)C(=O)OCc2c1cc1n(c2=O)Cc2c-1nc1cc(F)c(C)c3c1c2[C@@H](NC(=O)Cc1ccc(O)cc1)CC3` [Compound D49]: the half-inhibitory concentration (IC50) in the test with SK-BR-3 cancer cells (Homo sapiens, SK-BR-3, 144 h) is 1.79 ± 0.24 nM; in the test on MDA-MB-468 cancer cells (setting [1]), 0.83 ± 0.01 nM; with NCI-N87 cancer cells (Homo sapiens, NCI-N87, 144 h), 6.11 ± 0.19 nM.

For the compound `CC[C@@]1(O)C(=O)OCc2c1cc1n(c2=O)Cc2c-1nc1cc(F)c(C)c3c1c2[C@@H](NC(=O)C(C)(O)C(F)(F)F)CC3` (some centres unmarked) [Compound D48], the concentration for half-maximal inhibition (IC50) in the test with SK-BR-3 cancer cells (Homo sapiens, SK-BR-3, 144 h) was found to be 1.06 ± 0.15 nM; in the test on MDA-MB-468 cancer cells (setting [1]) it was 0.4 ± 0.11 nM; in the test with NCI-N87 cancer cells (Homo sapiens, NCI-N87, 144 h), 1.59 ± 0.09 nM.

Consider `CC[C@@]1(O)C(=O)OCc2c1cc1n(c2=O)Cc2cc3cc4c(cc3nc2-1)OCO4` [FL118, reference compound], for which the results for the half-inhibitory concentration (IC50) in the test on SK-BR-3 cancer cells (setting [2]), in the test on MDA-MB-468 cancer cells (setting [3]) and with NCI-N87 cancer cells (setting [4]) were 0.86 ± 0.1 nM, 0.37 ± 0.17 nM and 1.04 ± 0.18 nM, respectively.

For `CC[C@@]1(O)C(=O)OCc2c1cc1n(c2=O)Cc2c-1nc1cc(F)c(O)c3c1c2C(O)CC3` (some centres unmarked) [Compound D25], the half-maximal inhibitory concentration (IC50) in the test with SK-BR-3 cancer cells (Homo sapiens, SK-BR-3, 144 h) came out at 2.81 ± 0.43 nM; in the test on MDA-MB-468 cancer cells (setting [1]), 4.49 ± 0.76 nM; in the test on NCI-N87 cancer cells (Homo sapiens, NCI-N87, 144 h), 27.6 ± 8.26 nM.

Take `CC[C@@]1(O)C(=O)OCc2c1cc1n(c2=O)Cc2c-1nc1cc(F)c(O)cc1c2-c1ccoc1` [Compound D28]: the 50% inhibitory concentration (IC50) in the test on SK-BR-3 cancer cells (Homo sapiens, SK-BR-3, 144 h) came out at 5.31 ± 0.55 nM; in the test with MDA-MB-468 cancer cells (setting [1]), 2.45 ± 0.37 nM; in the test with NCI-N87 cancer cells (Homo sapiens, NCI-N87, 144 h), 12.7 ± 4.2 nM.
